Reference: US8889370B2, “Method of determining inhibitors of coagulation” (Siemens Healthcare Diagnostics Products GmbH, priority 2010, dated 2014)

What was measured:
[1] = target: thrombin (Homo sapiens, UniProt P00734); parameters: binding constant for thrombin: unit not given here; settings: cited from earlier work
[2] = target: T1, F Xa (Homo sapiens, UniProt P00742); experiment: LOCI chemiluminescence competition assay for F Xa inhibitors in standard human plasma, ligand B-r-G-R-H; type: binding; parameters: 10 μl of a reagent containing human F Xa (approx. 1000 IU/l); settings: standard human plasma with increasing inhibitor concentrations, anti-F Xa antibody-coated Chemibeads, FIG. 9
Experimental: The signal-producing system used was the LOCI system according to example 4.
The Chemibeads used herein were additionally coated with a commercially available polyclonal antibody to F Xa. For this, the antibody was linked covalently to the latex particles in a coupling ratio of 10 mg of antibody to […] of particles. The Sensibeads used herein were additionally coated with streptavidin.
The ligand used was the biotinylated peptide aldehyde biotinyl-Ttds-D-Arg-Gly-Arg-H (B-r-G-R—H).
In the absence of an F Xa inhibitor, the ligand binds, via its biotin residue, to the streptavidin-coated Sensibeads and, via its peptide moiety, to the F Xa which itself binds to the antibody-coated Chemibeads, and a chemiluminescence signal is generated (see also FIG. 1).
10 μl of a reagent containing human F Xa (approx. 1000 IU/l) and fibrin polymerization inhibitor peptide glycine-proline-arginine-proline (10 mg/ml) were admixed with 2 μl of sample, 20 μl of Chemibeads (400 μg/ml) and 10 μl of the ligand (6 μM) and incubated for 5 minutes. After addition of 60 μl of Sensibeads (200 μg/ml) and incubation for 10 minutes, the mix was filled with water to 260 μl and the chemiluminescence signal was measured. As FIG. 9 indicates, the chemiluminescence signal is reduced as a function of the type and concentration of the direct F Xa and thrombin inhibitors metered in.

[3] = target: T1, F Xa; settings: Prasa et al. 1997; Perzborn 2009; read-out: binding constant for F Xa; cited from earlier work

Compound | binding constant for thrombin ([1]; Prasa et al. 1997) | chemiluminescence signal [2] | Ki [3] [µM] | binding to thrombin, times more weakly than to F Xa ([1]; Perzborn 2009)
hirudin | 2.7×10^−14 | not reduced | – | –
CC1CNc2c(cccc2S(=O)(=O)N[C@@H](CCCNC(=N)N)C(=O)N2CC[C@@H](C)C[C@@H]2C(=O)O)C1 (stereo partly drawn) [argatroban] | – | not reduced | 210 | –
O=C(NC[C@H]1CN(c2ccc(N3CCOCC3=O)cc2)C(=O)O1)c1ccc(Cl)s1 [rivaroxaban] | – | inversely proportional | – | up to 10 000 times
